Source: patent US5691373A, “Nonpeptide endothelin antagonists I” (Warner-Lambert Company, priority 1995, dated 1997)

Tests used:
ETB = target: T1, ETB (Rattus norvegicus, UniProt P21451)
T1 sequence (P21451 27-442): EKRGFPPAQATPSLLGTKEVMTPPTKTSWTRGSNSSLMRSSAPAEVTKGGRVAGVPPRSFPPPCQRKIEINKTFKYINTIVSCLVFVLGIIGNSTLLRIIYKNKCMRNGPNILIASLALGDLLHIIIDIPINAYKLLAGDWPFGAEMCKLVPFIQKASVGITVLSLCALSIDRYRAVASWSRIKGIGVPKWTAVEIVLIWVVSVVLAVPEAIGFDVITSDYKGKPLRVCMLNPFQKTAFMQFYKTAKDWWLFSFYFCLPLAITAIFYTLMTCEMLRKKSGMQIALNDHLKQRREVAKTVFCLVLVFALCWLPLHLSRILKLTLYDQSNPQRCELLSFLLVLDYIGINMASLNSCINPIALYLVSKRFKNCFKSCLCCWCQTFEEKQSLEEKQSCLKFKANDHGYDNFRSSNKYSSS
Protocol: The tissue is made up of 20 mM tris(hydroxymethyl)aminomethane hydrochloride (Trizma) buffer, 2 mM ethylenediaminetetra acetate, 100 μM phenylmethylsulfonyl fluoride.
First, thaw one aliquot of frozen rat cerebellar membranes (2 mg protein in 0.5 mL). Next, add 0.5 mL membrane aliquot to 4.5 mL cold tissue buffer, polytron at 7,500 revolutions per minute for 10 seconds. Finally, dilute tissue suspension 1/100 (0.1 mL suspension+9.9 mL tissue buffer), polytron again, and place ice.
Mix in 150 μL of tissue to each tube, vortex briefly, then tap to force all liquids to bottom (total assay volume=250 μL). Then place the tubes in a 37° C. water bath for 2 hours.
Add 2.5 mL cold wash buffer (50 mM Trizma buffer) to each tube, filter, and then wash tube with additional 2.5 mL wash buffer and add to filter. Finally, wash filters with an additional 2.5 mL of cold wash buffer.
Count filters for radioactivity in gamma counter.

ETA = target: T2, ETA (Oryctolagus cuniculus, UniProt A5A8K3); settings: ERBA-A IC50, [125I]-ET-1, rabbit renal artery vascular smooth muscle cells
T2 sequence (A5A8K3 21-427): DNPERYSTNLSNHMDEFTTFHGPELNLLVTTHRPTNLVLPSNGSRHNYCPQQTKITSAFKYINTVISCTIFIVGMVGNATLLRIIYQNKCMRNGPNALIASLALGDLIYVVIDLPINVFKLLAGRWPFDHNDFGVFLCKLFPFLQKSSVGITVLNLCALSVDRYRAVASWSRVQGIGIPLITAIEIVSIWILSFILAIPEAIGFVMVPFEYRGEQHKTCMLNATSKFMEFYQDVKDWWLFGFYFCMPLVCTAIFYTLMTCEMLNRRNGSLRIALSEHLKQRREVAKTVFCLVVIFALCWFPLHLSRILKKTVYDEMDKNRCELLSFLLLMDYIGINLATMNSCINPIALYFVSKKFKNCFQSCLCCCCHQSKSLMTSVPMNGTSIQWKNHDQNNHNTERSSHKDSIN

human ETB receptor = target: T3, human ETB receptor (Homo sapiens, UniProt P24530); assay: ERBA-B: [125I]-ET-1 binding, recombinant human ETB receptor expressed in CHO-K1 cells; settings: human cloned ETB receptor, read-out: ERBA-B IC50, human cloned receptor data
T3 construct: expressed in transfected cells; host or cells: CHO-K1 cells, pRc-CMW (so in the source) expression vector, electroporation; membranes used
T3 sequence (P24530 27-442): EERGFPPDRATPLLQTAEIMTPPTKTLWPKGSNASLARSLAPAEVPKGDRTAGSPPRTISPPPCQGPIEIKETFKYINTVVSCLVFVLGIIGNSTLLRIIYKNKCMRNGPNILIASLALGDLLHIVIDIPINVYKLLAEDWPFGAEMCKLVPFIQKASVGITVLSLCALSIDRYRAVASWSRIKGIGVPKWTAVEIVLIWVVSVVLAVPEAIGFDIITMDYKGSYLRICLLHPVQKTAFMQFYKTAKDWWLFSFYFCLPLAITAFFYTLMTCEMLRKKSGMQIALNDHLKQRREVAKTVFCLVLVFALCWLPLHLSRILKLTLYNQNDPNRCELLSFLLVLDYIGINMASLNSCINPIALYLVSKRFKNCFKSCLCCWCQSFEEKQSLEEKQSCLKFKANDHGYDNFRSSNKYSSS

inhibition at 10 µM (ETB; read-out: ERBA-B % inhibition)	IC50 (ETB)	IC50 (ETA)	IC50 (human ETB receptor)	SMILES
22%	–	–	–	CC(C)c1ccc(C2=C(Cc3cccc4ccccc34)C(O)(c3ccc(Cl)cc3)OC2=O)cc1 (racemic) [Example 40, 2(5H)-Furanone, 5-(4-chlorophenyl)-5-hydroxy-3-[4-(1-methylethyl)phenyl]-4-(1-naphthalenylmethyl)-, (±)-]
–	18000 nM	–	–	CN(C)c1ccc(C2=C(Cc3ccc4c(c3)OCO4)C(O)(c3ccc(Cl)cc3)OC2=O)cc1 (racemic) [Example 54, 2(5H)-Furanone, 4-(1,3-benzodioxol-5-ylmethyl)-5-(4-chlorophenyl)-3-[4-(dimethylamino)phenyl]-5-hydroxy-, (±)-]
–	21000 nM	–	–	CN(C)c1ccc(CC2=C(c3ccc(N(C)C)cc3)C(=O)OC2(O)c2ccc(Cl)cc2)cc1 (racemic) [Example 55, 2(5H)-Furanone, 5-(4-chlorophenyl)-3-[4-(dimethylamino)phenyl]-4-[[4-(dimethylamino)phenyl]methyl]-5-hydroxy-, (±)-]
–	4200 nM	–	–	COc1ccc(C2=C(Cc3ccc(N(C)C)cc3)C(O)(c3ccc(Cl)cc3)OC2=O)cc1OC (racemic) [Example 71, 2(5H)-Furanone, 5-(4-Chlorophenyl)-3-(3,4-dimethoxyphenyl)-4-[[4-(dimethylamino)phenyl]methyl]-5-hydroxy-, (±)-]
–	26000 nM	–	–	O=C1OC(O)(c2ccccc2)C(Cc2ccccc2)=C1c1ccc2c(c1)OCO2 (centres unmarked) [Example 24, 2(5H)-Furanone, 3-(1,3-benzodioxol-5-yl)-5-hydroxy-5-phenyl-4-(phenylmethyl)-]
–	4200 nM	–	–	O=C1OC(O)(c2ccc(Cl)cc2)C(Cc2ccccc2)=C1c1ccc2c(c1)OCO2 (centres unmarked) [Example 39, 2(5H)-Furanone, 3-(1,3-benzodioxol-5-yl)-5-(4-chlorophenyl)-5-hydroxy-4-(phenylmehyl)-]
–	–	< 25 nM	960 nM	COc1ccc(C(=O)/C(Cc2ccccc2)=C(\C(=O)O)c2cc(OC)c3c(c2)OCO3)cc1 [Example 368, Sodium 3-Benzyl-2-(7-methoxy-benzo[1,3]dioxol-5-yl)-4-(4-methoxy-phenyl)-4-oxo-but-2-enoate]
–	–	10 nM	1530 nM	COc1ccc(C(=O)/C(Cc2ccccc2)=C(\C(=O)O)c2cc(OC)c3c(c2)OCO3)cc1C [Example 370, Sodium 3-Benzyl-2-(7-methoxy-benzo[1,3]dioxol-5-yl)-4-(4-methoxy-3-methyl-phenyl)-4-oxo-but-2-enoate]
–	–	0.39 nM	328 nM	COc1ccc(C(=O)/C(Cc2cc(OC)c(OC)c(OC)c2)=C(\C(=O)O)c2cc(OC)c3c(c2)OCO3)cc1 [Example 371]
–	–	24 nM	2000 nM	COc1ccc(C/C(C(=O)c2ccc(OC)cc2)=C(/C(=O)O)c2ccc3c(c2)OCO3)cc1 [Example 380, Sodium2-Benzo[1,3]dioxol-5-yl-3-(4-methoxy-benzyl)-4-(4-methoxy-phenyl)-4-o xo-but-2-enoate]
–	–	68 nM	570 nM	CCCCCCCCOc1ccc(CC2=C(c3cc(OC)cc(OC)c3)C(=O)OC2(O)c2ccc(OC)cc2)cc1OC (centres unmarked) [Example 381, 3-(3,5-Dimethoxy-phenyl)-5-hydroxy-4-(3-methoxy-4-octyloxy-benzyl)-5-(4-methoxy-phenyl)-5H-furan-2-one]
–	–	0.8 nM	690 nM	COc1cc(OC)cc(C2=C(Cc3ccc(NC(C)=O)cc3)C(O)(c3ccc(OC)c(C)c3)OC2=O)c1 (centres unmarked) [Example 385, N-{4-[4-(3,5-Dimethoxy-phenyl)-2-hydroxy-2-(4-methoxy-3-methyl-phenyl)-5-oxo-2,5-dihydro-furan-3-ylmethyl]-phenyl}-acetamide]
–	–	7 nM	820 nM	COc1cc(OC)cc(C2=C(Cc3ccc(OC(C)C)c(OC)c3)C(O)(c3ccc(OC)c(C)c3)OC2=O)c1 (centres unmarked) [Example 390, 3-(3,5-Dimethoxy-phenyl)-5-hydroxy-4-(4-isopropoxy-3-methoxy-benzyl)-5-(4-methoxy-3-methyl-phenyl)-5H-furan-2-one]
–	–	1.8 nM	> 250 nM	COc1ccc(C2(O)OC(=O)C(c3ccc4c(c3)OCO4)=C2Cc2ccc(OC(C)C)c(OC)c2)cc1C (centres unmarked) [Example 391, 3-Benzo[1,3]dioxol-5-yl-5-hydroxy-4-(4-isopropoxy-3-methoxy-benzyl)-5-(4-methoxy-3-methyl-phenyl)-5H-furan-2-one]
–	–	3800 nM	14000 nM	COc1cc(OC)cc(/C(C(=O)O)=C(\Cc2c(OC)cc(OC)cc2OC)C(=O)c2ccc(OC)c(C)c2)c1 [Example 392]
–	–	240 nM	830 nM	CCCCCCCCOc1ccc(CC2=C(c3cc(OC)cc(OC)c3)C(=O)OC2(O)c2ccc(OC)c(C)c2)cc1OC (centres unmarked) [Example 393, 3-(3,5-Dimethoxy-phenyl)-5-hydroxy-5-(4-methoxy-3-methyl-phenyl)-4-(3-methoxy-4-octyloxy-benzyl)-5H-furan-2-one]
–	–	68 nM	420 nM	CCCCCCCCOc1ccc(CC2=C(c3ccc4c(c3)OCO4)C(=O)OC2(O)c2ccc(OC)c(C)c2)cc1OC (centres unmarked) [Example 394, 3-Benzo[1,3]dioxol-5-yl-5-hydroxy-5-(4-methoxy-3-methyl-phenyl)-4-(3-methoxy-4-octyloxy-benzyl)-5H-furan-2-one]
–	–	13 nM	840 nM	COc1ccc(C2(O)OC(=O)C(c3ccc4c(c3)OCO4)=C2Cc2ccc(OC(C)C)c(C)c2)cc1C (centres unmarked) [Example 395, 3-Benzo[1,3]dioxol-5-yl-5-hydroxy-4-(4-isopropoxy-3-methyl-benzyl)-5-(4-methoxy-3-methyl-phenyl)-5H-furan-2-one]
–	–	47 nM	1200 nM	COc1cc(OC)cc(C2=C(Cc3ccc(OC(C)C)c(C)c3)C(O)(c3ccc(OC)c(C)c3)OC2=O)c1 (centres unmarked) [Example 396, 3-(3,5-Dimethoxy-phenyl)-5-hydroxy-4-(4-isopropoxy-3-methyl-benzyl)-5-(4-methoxy-3-methyl-phenyl)-5H-furan-2-one]
–	–	610 nM	2600 nM	COc1ccc(C2(O)OC(=O)C(c3ccc4c(c3)OCO4)=C2Cc2ccc(OC3CCCCC3)c(C)c2)cc1 (centres unmarked) [Example 397, 3-Benzo[1,3]dioxol-5-yl-4-(4-cyclohexyloxy-3-methylbenzyl)-5-hydroxy-5-(4-methoxy-phenyl)-5H-furan-2-one]
–	–	830 nM	> 2500 nM	COc1ccc(C2(O)OC(=O)C(c3ccc4c(c3)OCO4)=C2CC2CCCc3ccccc32)cc1 (centres unmarked) [Example 398, 3-Benzo[1,3]dioxol-5-yl-5-hydroxy-5-(4-methoxy-phenyl)-4-(1,2,3,4-tetrahydro-naphthalen-1-ylmethyl)-5H-furan-2-one]
–	–	20 nM	1100 nM	COC(=O)C1CCCC(CC2=C(c3ccc4c(c3)OCO4)C(=O)OC2(O)c2ccc(OC)cc2)C1 (centres unmarked) [Example 399, 3-[4-Benzo[1,3]dioxol-5-yl-2-hydroxy-2-(4-methoxyphenyl)-5-oxo-2,5-dihydro-furan-3-ylmethyl]-cyclohexanecarboxylic acid methyl ester]
–	–	39 nM	> 2500 nM	COc1ccc(C2(O)OC(=O)C(c3ccc4c(c3)OCO4)=C2CC2CC2)cc1 (centres unmarked) [Example 400, 3-Benzo[1,3]dioxol-5-yl-4-cyclopropylmethyl-5-hydroxy-5-(4-methoxy-phenyl)-5H-furan-2-one]
–	–	250 nM	3000 nM	COc1ccc(C2(O)OC(=O)C(c3ccc4c(c3)OCO4)=C2CC2CCCC(C(=O)O)C2)cc1 (centres unmarked) [Example 403, 3-[4-Benzo[1,3]dioxol-5-yl-2-hydroxy-2-(4-methoxyphenyl)-5-oxo-2,5-dihydro-furan-3-ylmethyl]-cyclohexanecarboxylic acid]
–	–	58 nM	> 2500 nM	COc1ccc(C2(O)OC(=O)C(c3ccc4c(c3)OCO4)=C2Cc2ccc(C(C)C)cc2)cc1 (centres unmarked) [Example 404, 3-Benzo[1,3]dioxol-5-yl-5-hydroxy-4-(4-isopropylbenzyl)-5-(4-methoxy-phenyl)-5H-furan-2-one]
